From PMC8162404, “Proteomimetic surface fragments distinguish targets by function” (Chemical Science, 2020)

What was measured:
[1] = biological target: T1, S100B (Homo sapiens, UniProt P04271); assay: Pull-down assay with immobilized protein and LSM libraries; assay type: binding; conditions: H12 library; 1:1 binding assumed; read-out: Surface mapping KD (apparent)
T1 construct: made in house; host or cells: Escherichia coli BL21(DE3)
T1 sequence (P04271 1-92): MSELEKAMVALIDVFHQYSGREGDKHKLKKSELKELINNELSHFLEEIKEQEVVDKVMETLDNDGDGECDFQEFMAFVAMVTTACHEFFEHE
In short: (§1)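 Buffers were HEPES pH 7.4 with 150 mM NaCl, plus 1 mM TCEP and 1 mM CaCl2 (50 mM HEPES) for S100A4 and S100B, 1 mM TCEP for Gal-1, and no additive for RecQ-WH. Immobilized protein at 64 µM was equilibrated 30 min with the LSM sublibrary, and unbound probes were measured by LC-MS.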

[2] = biological target: T2, Gal-1 (Homo sapiens, UniProt P09382); assay: as above; assay type: binding; conditions: H12 library; 1:1 binding assumed; read-out: Surface mapping KD (apparent)
T2 construct: made in house; host or cells: E. coli BL21(DE3)
T2 sequence (P09382 whole entry): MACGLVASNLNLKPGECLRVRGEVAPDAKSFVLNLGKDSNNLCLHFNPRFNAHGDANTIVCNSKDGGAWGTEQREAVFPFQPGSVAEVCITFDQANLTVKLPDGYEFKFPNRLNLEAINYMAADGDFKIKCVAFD
In short: as §1

`NC(=O)C[C@@H](CC(=O)N[C@H]1CCC[C@@H]1C(=O)N[C@H]1CCC[C@@H]1C(N)=O)NC(=O)[C@H]1CCC[C@@H]1NC(=O)[C@H]1CCC[C@@H]1NC(=O)C[C@H](Cc1ccccc1)NC(=O)[C@H]1CCC[C@@H]1NC(=O)[C@H]1CCC[C@@H]1N` [H12 FN] was tested, and the Kd [1] was 109 µM and the Kd [2] was 226 µM.
`N=C(N)NCCC[C@@H](CC(=O)N[C@H]1CCC[C@@H]1C(=O)N[C@H]1CCC[C@@H]1C(N)=O)NC(=O)[C@H]1CCC[C@@H]1NC(=O)[C@H]1CCC[C@@H]1NC(=O)C[C@H](CCC(N)=O)NC(=O)[C@H]1CCC[C@@H]1NC(=O)[C@H]1CCC[C@@H]1N` [H12 QR] was tested, and the Kd [1] was 321 µM and the Kd [2] was 431 µM.
Work on `NC(=O)[C@H]1CCC[C@@H]1NC(=O)[C@H]1CCC[C@@H]1NC(=O)C[C@H](CO)NC(=O)[C@H]1CCC[C@@H]1NC(=O)[C@H]1CCC[C@@H]1NC(=O)C[C@H](Cc1ccc(O)cc1)NC(=O)[C@H]1CCC[C@@H]1NC(=O)[C@H]1CCC[C@@H]1N` [H12 YS] yielded a Kd [1] of 195 µM and a Kd [2] of 194 µM.
Compound `NCCCC[C@@H](CC(=O)N[C@H]1CCC[C@@H]1C(=O)N[C@H]1CCC[C@@H]1C(N)=O)NC(=O)[C@H]1CCC[C@@H]1NC(=O)[C@H]1CCC[C@@H]1NC(=O)C[C@H](CCCCN)NC(=O)[C@H]1CCC[C@@H]1NC(=O)[C@H]1CCC[C@@H]1N` [H12 KK] has a Kd [1] of 177 µM and a Kd [2] of 230 µM.
Work on `NC(=O)C[C@@H](CC(=O)N[C@H]1CCC[C@@H]1C(=O)N[C@H]1CCC[C@@H]1C(N)=O)NC(=O)[C@H]1CCC[C@@H]1NC(=O)[C@H]1CCC[C@@H]1NC(=O)C[C@H](Cc1ccc(O)cc1)NC(=O)[C@H]1CCC[C@@H]1NC(=O)[C@H]1CCC[C@@H]1N` [H12 YN] yielded a Kd [1] of 237 µM and a Kd [2] of 181 µM.
Compound `CSCC[C@@H](CC(=O)N[C@H]1CCC[C@@H]1C(=O)N[C@H]1CCC[C@@H]1C(=O)N[C@@H](CCC(N)=O)CC(=O)N[C@H]1CCC[C@@H]1C(=O)N[C@H]1CCC[C@@H]1C(N)=O)NC(=O)[C@H]1CCC[C@@H]1NC(=O)[C@H]1CCC[C@@H]1N` [H12 MQ] has a Kd [1] of 192 µM and a Kd [2] of 173 µM.
For `C[C@@H](CC(=O)N[C@H]1CCC[C@@H]1C(=O)N[C@H]1CCC[C@@H]1C(=O)N[C@@H](CCCCN)CC(=O)N[C@H]1CCC[C@@H]1C(=O)N[C@H]1CCC[C@@H]1C(N)=O)NC(=O)[C@H]1CCC[C@@H]1NC(=O)[C@H]1CCC[C@@H]1N` [H12 AK], the Kd [1] was 380 µM and the Kd [2] was 303 µM.
`CC(C)[C@@H](CC(=O)N[C@H]1CCC[C@@H]1C(=O)N[C@H]1CCC[C@@H]1C(=O)N[C@@H](CCCCN)CC(=O)N[C@H]1CCC[C@@H]1C(=O)N[C@H]1CCC[C@@H]1C(N)=O)NC(=O)[C@H]1CCC[C@@H]1NC(=O)[C@H]1CCC[C@@H]1N` [H12 VK] showed a Kd [1] of 185 µM and a Kd [2] of 430 µM.
`CC[C@H](C)[C@@H](CC(=O)N[C@H]1CCC[C@@H]1C(=O)N[C@H]1CCC[C@@H]1C(=O)N[C@@H](CO)CC(=O)N[C@H]1CCC[C@@H]1C(=O)N[C@H]1CCC[C@@H]1C(N)=O)NC(=O)[C@H]1CCC[C@@H]1NC(=O)[C@H]1CCC[C@@H]1N` [H12 IS] was tested, and the Kd [1] was 360 µM and the Kd [2] was 485 µM.
`CSCC[C@@H](CC(=O)N[C@H]1CCC[C@@H]1C(=O)N[C@H]1CCC[C@@H]1C(N)=O)NC(=O)[C@H]1CCC[C@@H]1NC(=O)[C@H]1CCC[C@@H]1NC(=O)C[C@@H](NC(=O)[C@H]1CCC[C@@H]1NC(=O)[C@H]1CCC[C@@H]1N)C(C)C` [H12 VM] showed a Kd [1] of 303 µM and a Kd [2] of 459 µM.
With `NCCCC[C@@H](CC(=O)N[C@H]1CCC[C@@H]1C(=O)N[C@H]1CCC[C@@H]1C(=O)N[C@H](CC(=O)N[C@H]1CCC[C@@H]1C(=O)N[C@H]1CCC[C@@H]1C(N)=O)Cc1ccc(O)cc1)NC(=O)[C@H]1CCC[C@@H]1NC(=O)[C@H]1CCC[C@@H]1N` [H12 KY] the Kd [1] was 138 µM and the Kd [2] was 227 µM.
In the case of `C[C@@H](O)[C@@H](CC(=O)N[C@H]1CCC[C@@H]1C(=O)N[C@H]1CCC[C@@H]1C(N)=O)NC(=O)[C@H]1CCC[C@@H]1NC(=O)[C@H]1CCC[C@@H]1NC(=O)C[C@H](Cc1ccc(O)cc1)NC(=O)[C@H]1CCC[C@@H]1NC(=O)[C@H]1CCC[C@@H]1N` [H12 YT], the Kd [1] is reported as 251 µM and the Kd [2] is reported as 300 µM.
Compound `NC(=O)[C@H]1CCC[C@@H]1NC(=O)[C@H]1CCC[C@@H]1NC(=O)C[C@H](CCC(=O)O)NC(=O)[C@H]1CCC[C@@H]1NC(=O)[C@H]1CCC[C@@H]1NC(=O)C[C@H](Cc1c[nH]c2ccccc12)NC(=O)[C@H]1CCC[C@@H]1NC(=O)[C@H]1CCC[C@@H]1N` [H12 WE] has a Kd [1] of 229 µM and a Kd [2] of 256 µM.
For `NC(=O)[C@H]1CCC[C@@H]1NC(=O)[C@H]1CCC[C@@H]1NC(=O)C[C@H](CCC(=O)O)NC(=O)[C@H]1CCC[C@@H]1NC(=O)[C@H]1CCC[C@@H]1NC(=O)C[C@H](Cc1ccccc1)NC(=O)[C@H]1CCC[C@@H]1NC(=O)[C@H]1CCC[C@@H]1N` [H12 FE], the Kd [1] was 391 µM and the Kd [2] was 198 µM.
Compound `CSCC[C@@H](CC(=O)N[C@H]1CCC[C@@H]1C(=O)N[C@H]1CCC[C@@H]1C(=O)N[C@@H](CC(N)=O)CC(=O)N[C@H]1CCC[C@@H]1C(=O)N[C@H]1CCC[C@@H]1C(N)=O)NC(=O)[C@H]1CCC[C@@H]1NC(=O)[C@H]1CCC[C@@H]1N` [H12 MN] has a Kd [1] of 177 µM and a Kd [2] of 195 µM.
With `NCCCC[C@@H](CC(=O)N[C@H]1CCC[C@@H]1C(=O)N[C@H]1CCC[C@@H]1C(=O)N[C@@H](CC(=O)O)CC(=O)N[C@H]1CCC[C@@H]1C(=O)N[C@H]1CCC[C@@H]1C(N)=O)NC(=O)[C@H]1CCC[C@@H]1NC(=O)[C@H]1CCC[C@@H]1N` [H12 KD] the Kd [1] was 149 µM and the Kd [2] was 289 µM.
With `N=C(N)NCCC[C@@H](CC(=O)N[C@H]1CCC[C@@H]1C(=O)N[C@H]1CCC[C@@H]1C(N)=O)NC(=O)[C@H]1CCC[C@@H]1NC(=O)[C@H]1CCC[C@@H]1NC(=O)C[C@H](Cc1ccc(O)cc1)NC(=O)[C@H]1CCC[C@@H]1NC(=O)[C@H]1CCC[C@@H]1N` [H12 YR] the Kd [1] was 65 µM and the Kd [2] was 61 µM.
`NC(=O)C[C@@H](CC(=O)N[C@H]1CCC[C@@H]1C(=O)N[C@H]1CCC[C@@H]1C(N)=O)NC(=O)[C@H]1CCC[C@@H]1NC(=O)[C@H]1CCC[C@@H]1NC(=O)C[C@H](Cc1c[nH]c2ccccc12)NC(=O)[C@H]1CCC[C@@H]1NC(=O)[C@H]1CCC[C@@H]1N` [H12 WN] gave a Kd [1] of 55 µM and a Kd [2] of 270 µM.
Work on `NC(=O)CC[C@@H](CC(=O)N[C@H]1CCC[C@@H]1C(=O)N[C@H]1CCC[C@@H]1C(N)=O)NC(=O)[C@H]1CCC[C@@H]1NC(=O)[C@H]1CCC[C@@H]1NC(=O)C[C@H](Cc1c[nH]c2ccccc12)NC(=O)[C@H]1CCC[C@@H]1NC(=O)[C@H]1CCC[C@@H]1N` [H12 WQ] yielded a Kd [1] of 53 µM and a Kd [2] of 304 µM.
In the case of `CC(C)[C@@H](CC(=O)N[C@H]1CCC[C@@H]1C(=O)N[C@H]1CCC[C@@H]1C(=O)N[C@@H](CCCNC(=N)N)CC(=O)N[C@H]1CCC[C@@H]1C(=O)N[C@H]1CCC[C@@H]1C(N)=O)NC(=O)[C@H]1CCC[C@@H]1NC(=O)[C@H]1CCC[C@@H]1N` [H12 VR], the Kd [1] is reported as 118 µM and the Kd [2] is reported as 234 µM.
In the case of `CC(C)[C@@H](CC(=O)N[C@H]1CCC[C@@H]1C(=O)N[C@H]1CCC[C@@H]1C(N)=O)NC(=O)[C@H]1CCC[C@@H]1NC(=O)[C@H]1CCC[C@@H]1NC(=O)C[C@@H](NC(=O)[C@H]1CCC[C@@H]1NC(=O)[C@H]1CCC[C@@H]1N)C(C)C` [H12 VV], the Kd [1] is reported as 277 µM and the Kd [2] is reported as 439 µM.
Work on `C[C@@H](O)[C@@H](CC(=O)N[C@H]1CCC[C@@H]1C(=O)N[C@H]1CCC[C@@H]1C(N)=O)NC(=O)[C@H]1CCC[C@@H]1NC(=O)[C@H]1CCC[C@@H]1NC(=O)C[C@H](CCCNC(=N)N)NC(=O)[C@H]1CCC[C@@H]1NC(=O)[C@H]1CCC[C@@H]1N` [H12 RT] yielded a Kd [1] of 133 µM and a Kd [2] of 213 µM.
